Experimental findings from article PMC11003481, “Synthesis, biological evaluation, and computational studies of N-benzyl pyridinium–curcumin derivatives as potent AChE inhibitors with antioxidant activity” (Journal of Enzyme Inhibition and Medicinal Chemistry, 2023) are described below.

Where “and” joins values, the source holds several entries; their conditions need not be identical. Equal values may be shown once.

The target of test [1] is acetylcholinesterase (eeAChE, from Electrophorus electricus) (Electrophorus electricus, UniProt O42275). The test is described as follows: biochemical. To be noted: for Selectivity Index (SI) (AChE): Selectivity ratio [IC50(BChE)/IC50(AChE)]; for IC50: eeAChE, mean ± SEM of three independent experiments, duplicate samples, read-out: IC50 ± SEM AChE. How it is done: (§1) The AChE and BChE inhibitory activity assays were performed using a BioTek Epoch 2 microplate spectrophotometer in clear, flat-bottom 96-well plates. […] To each well, 295 µL phosphate buffer pH 8.0, 10 µL enzyme solution (AChE/BChE), and 10 µL target compound solutions were added together and allowed to stand for 4 min at room temperature. Then, 10 µL of 0.01 M solution freshly prepared Ellman’s reagent 5,5′-dithiobis(2-nitrobenzoic acid) (DTNB) was added to each well. The reaction in the wells was started by the addition of 2 µL of 0.075 M solution freshly prepared substrate (ATCh (acetylthiocholine iodide)/BTCh (S-butyrylthiocholine iodide)) solution. The solution was mixed immediately and incubated for 2:30 min for AChE or for 5 min for BChE inside the microplate reader at 26 °C. […] The IC50 values were calculated graphically by nonlinear regression analysis of inhibition curves that were obtained by plotting the logarithm of the inhibitor concentrations versus the percentage of inhibition (log(inhibitor) vs. normalised response) using GraphPad Prism 8 software (See Supplementary Information for details).

In test [2] the target is eeAChE (Electrophorus electricus, UniProt O42275). The test is described as follows: biochemical. It counts as biochemical. The note with it: for Ki: from slopes of Lineweaver-Burk plots versus inhibitor concentration, substrate ATCh, read-out: Ki ± SEM eeAChE. How it is done: The slopes of the Lineweaver-Burk reciprocal plots against the concentrations of the compound (inhibitor) were plotted to obtain the Ki values for the prepared compounds (Table 1). The value at which the line intersects the x-axis is -Ki.
The assay was performed in triplicate using different inhibitor concentrations. […] The assay was carried out in clear, flat-bottom 96-well plates, to which 5 µL distilled water was added to all wells of columns 2–3, rows B-F. Then, 5 µL of the lowest concentration of inhibitor solution was added to the wells of columns 4–5, 5 µL of the median concentration of inhibitor solution was added to the wells of columns 6–7, and 5 µL of the highest concentration of inhibitor solution was added to the wells of columns 8–9. Next, 275 μL enzyme solution was added to the wells, and the plates were incubated for 4 min. Then, 10 μL 2.5 mM DTNB was added to the wells, followed by 10 μL of 32, 16, 8, 4, or 2 mM ATCh solutions to initiate the reactions. The plates were placed in a microplate reader for direct kinetic measurements.
The inhibition constant (Ki) for each inhibitor was calculated by averaging the ATCh hydrolysis rates from three independent experiments. Using GraphPad Prism 8 software, nonlinear regression was used to calculate the Km and Vmax values of the Michaelis-Menten kinetics by plotting [substrate] versus velocity. For the Lineweaver-Burk plots, linear regression was used to plot [1/ATCh] versus […]. Finally, the Ki values were obtained by plotting the slopes against [inhibitor] [20].

The nature of test [3]: ABTS radical cation decolorisation antioxidant assay. The method, then:
The antioxidant activity was determined using a radical cation (ABTS^.+) decolorisation assay, as described by Xiao et al.[21] with a few modifications. The assay used a BioTek Epoch 2 microplate spectrophotometer (Agilent, USA) with clear, flat-bottom 96-well plates. The 7 mmol/L ABTS^.+ stock solution was prepared by dissolving 96.02 mg ABTS in acetic acid buffer (pH 4.5) and to a final volume of 25 ml, which was kept in the dark at 0–4 °C. A 2.45 mmol/L potassium persulfate (K2S2O8) stock solution was prepared by dissolving 66.24 mg K2S2O8 in acetic acid buffer solution with pH 4.5, and then diluted to 100 ml and kept in the dark at 0–4 °C. The ABTS working solution was prepared by mixing similar quantities of 7 mmol/L ABTS and 2.45 mmol/L K2S2O8. This solution was stored in a dark cabinet for 16 h before use, when it was diluted with distilled water to obtain an absorbance of 0.70 at 734 nm. In a clear, flat-bottom 96-well plate, 200 μL of ABTS working solution and 10.0 μL sample solution at different concentrations (0.0312–0.5 mg/mL) were mixed well and incubated in the dark for 7 min before the absorbance was measured at 734 nm using a microplate reader. A blank was run for each assay, and all measurements were performed after 7 min. The ABTS scavenging capacity of inhibitors was compared with that of trolox and α-tocopherol. […]

Test [4] addresses T1, butyrylcholinesterase (eqBChE, from equine serum) (Equus caballus, UniProt P81908).
T1 construct: butyrylcholinesterase (eqBChE, from equine serum); from tissue; host or cells: equine serum
Put plainly: biochemical. To be noted: mean ± SEM of three independent experiments, duplicate samples, read-out: IC50 ± SEM BChE. How it is done: as §1

T1 sequence (P81908 whole entry): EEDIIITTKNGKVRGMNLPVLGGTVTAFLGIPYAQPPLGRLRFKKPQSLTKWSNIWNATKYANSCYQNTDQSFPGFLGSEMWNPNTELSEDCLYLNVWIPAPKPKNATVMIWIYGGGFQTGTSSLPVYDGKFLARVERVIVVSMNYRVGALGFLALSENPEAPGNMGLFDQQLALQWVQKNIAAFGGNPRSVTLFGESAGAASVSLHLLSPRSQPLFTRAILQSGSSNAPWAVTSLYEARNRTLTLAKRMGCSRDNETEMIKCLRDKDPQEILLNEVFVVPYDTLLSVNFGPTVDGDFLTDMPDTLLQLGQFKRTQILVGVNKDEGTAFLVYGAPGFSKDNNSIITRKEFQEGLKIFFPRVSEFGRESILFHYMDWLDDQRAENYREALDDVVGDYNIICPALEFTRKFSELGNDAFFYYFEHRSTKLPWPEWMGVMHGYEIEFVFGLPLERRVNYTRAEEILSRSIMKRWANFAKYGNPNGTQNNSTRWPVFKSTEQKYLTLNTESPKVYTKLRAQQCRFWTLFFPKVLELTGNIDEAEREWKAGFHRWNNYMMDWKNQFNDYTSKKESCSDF
eeAChE, sequence (O42275 24-633): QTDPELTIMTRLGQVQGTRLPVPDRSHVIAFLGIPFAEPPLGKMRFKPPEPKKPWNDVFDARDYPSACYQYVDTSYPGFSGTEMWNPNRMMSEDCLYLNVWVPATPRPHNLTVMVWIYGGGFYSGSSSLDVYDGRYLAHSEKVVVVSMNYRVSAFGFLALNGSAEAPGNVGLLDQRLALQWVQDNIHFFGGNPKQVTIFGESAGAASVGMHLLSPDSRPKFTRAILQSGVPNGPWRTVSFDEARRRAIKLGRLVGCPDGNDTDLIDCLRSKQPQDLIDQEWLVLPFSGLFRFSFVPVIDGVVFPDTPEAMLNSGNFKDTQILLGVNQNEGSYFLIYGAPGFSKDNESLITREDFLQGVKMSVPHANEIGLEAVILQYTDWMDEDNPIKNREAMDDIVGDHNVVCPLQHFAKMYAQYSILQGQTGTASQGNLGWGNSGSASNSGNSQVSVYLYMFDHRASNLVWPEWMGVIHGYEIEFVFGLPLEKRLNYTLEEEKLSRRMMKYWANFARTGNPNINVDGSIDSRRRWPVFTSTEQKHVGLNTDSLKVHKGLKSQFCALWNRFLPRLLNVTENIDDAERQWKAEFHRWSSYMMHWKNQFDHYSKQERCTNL
acetylcholinesterase (eeAChE, from Electrophorus electricus), sequence (O42275 24-633): as above

In the case of `O=C(/C=C/c1ccccc1)/C=C/c1ccc[n+](Cc2ccc(F)cc2)c1` [Compound 8b, 1–(4-Fluorobenzyl)-3-(1E,4E)-3-oxo-5-phenylpenta-1,4-dien-1-yl)pyridin-1-ium bromide], the “Selectivity Index (SI) (AChE)” value in test [1] stood at 7. Besides, the IC50 (commonly the point on the concentration scale where inhibition reaches its midpoint) in test [1] is ≤ 56 nM and 54 nM. Further, the inhibition constant (Ki) – broadly, a measure of affinity in units of concentration, obtained from inhibition or displacement – in test [2] was 90 ± 0.012 nM. For the same molecule, the “ABTS Inhibition %” value in test [3] (0.0312 mg/mL) stood at 0.2 ± 0.40%; in test [3] (0.0625 mg/mL), 0.3 ± 0.22%; in test [3] (0.125 mg/mL) it was 1.0 ± 0.52%; in test [3] (0.25 mg/mL), 2.3 ± 0.64%; in test [3] (0.5 mg/mL) it was 5.1 ± 0.62%.

In the case of `O=C(/C=C/c1ccccc1)/C=C/c1ccc[n+](Cc2ccccc2)c1` [Compound 8a, 1-Benzyl-3-(1E,4E)-3-oxo-5-phenylpenta-1,4-dien-1-yl)pyridin-1-ium bromide], the “Selectivity Index (SI) (AChE)” value in test [1] worked out at 14. Further, the IC50 in test [1] was ≤ 56 nM and 56 nM. The Ki in test [2] was 102 ± 0.008 nM. In addition, the “ABTS Inhibition %” value in test [3] (0.0312 mg/mL) turned out to be 0.0 ± 0.70%; in test [3] (0.0625 mg/mL), 0.3 ± 0.28%; in test [3] (0.125 mg/mL) it was 0.4 ± 0.36%; in test [3] (0.25 mg/mL), 1.4 ± 0.49%; in test [3] (0.5 mg/mL), 2.6 ± 0.38%.

As to `O=C(/C=C/c1ccccc1)/C=C/c1cc[n+](Cc2ccccc2)cc1` [Compound 7a, 1-Benzyl-4-(1E,4E)-3-oxo-5-phenylpenta-1,4-dien-1-yl)pyridin-1-ium bromide], the “Selectivity Index (SI) (AChE)” value in test [1] came out at 19. Further, in test [1], the IC50 stood at 32 ± 0.22 nM. For the same molecule, in test [2], the Ki amounted to 39 ± 0.011 nM. Moreover, the “Type of AChE inhibition (Lineweaver-Burk pattern)” value in test [2] (slopes and intercepts increased with inhibitor concentration) was “mixed-type inhibition”. The “ABTS Inhibition %” value in test [3] (0.0312 mg/mL) is reported as 1.4 ± 0.56%; in test [3] (0.0625 mg/mL) it was 1.5 ± 0.30%; in test [3] (0.125 mg/mL) it was 1.7 ± 0.68%; in test [3] (0.25 mg/mL), 3.5 ± 0.72%; in test [3] (0.5 mg/mL), 6.4 ± 0.47%.

Consider `O=C(/C=C/c1ccccc1)/C=C/c1cc[n+](Cc2ccc(Br)cc2)cc1` [Compound 7c, 1–(4-Bromobenzyl)-4-(1E,4E)-3-oxo-5-phenylpenta-1,4-dien-1-yl)pyridin-1-ium bromide], for which, in test [1], the “Selectivity Index (SI) (AChE)” value turned out to be 3 and the IC50 worked out at 280 ± 0.2 nM.

For the molecule `COc1cc(/C=C/C(=O)/C=C/c2ccc[n+](Cc3ccc(C)cc3)c2)ccc1O` [Compound 8i, 3-(1E,4E)-5–(4-Hydroxy-3-methoxyphenyl)-3-oxopenta-1,4-dien-1-yl)-1–(4-methylbenzyl)pyridin-1-ium bromide], in test [1], the “Selectivity Index (SI) (AChE)” value stood at 11. In addition, the 50% inhibitory concentration (IC50) in test [1] is 270 ± 21 nM; in test [4] it was 2500 ± 100 nM.

On to `Cc1c(C)c2c(c(C)c1O)CC[C@@](C)(CCC[C@H](C)CCC[C@H](C)CCCC(C)C)O2` [α-tocopherol, reference compound], for which the “ABTS Inhibition %” value in test [3] (0.0312 mg/mL) is given as 6.9 ± 2.3%; in test [3] (0.0625 mg/mL) it was 15.9 ± 1.0%; in test [3] (0.125 mg/mL), 29.7 ± 1.3%; in test [3] (0.25 mg/mL), 56.4 ± 0.72%; in test [3] (0.5 mg/mL) it was 90.2 ± 0.04%.

On to `Cc1ccc(C[n+]2cccc(/C=C/C(=O)/C=C/c3ccccc3)c2)cc1` [Compound 8d, 1–(4-Methylbenzyl)-3-(1E,4E)-3-oxo-5-phenylpenta-1,4-dien-1-yl)pyridin-1-ium bromide], for which the “Selectivity Index (SI) (AChE)” value in test [1] worked out at 4. The IC50 in test [1] amounted to 630 ± 0.2 nM; in test [4], 2500 ± 79 nM.

`COc1cc(/C=C/C(=O)/C=C/c2ccc[n+](Cc3ccc(Br)cc3)c2)ccc1O` [Compound 8h, 1–(4-Bromobenzyl)-3-(1E,4E)-5–(4-hydroxy-3-methoxyphenyl)-3-oxopenta-1,4-dien-1-yl)pyridin-1-ium bromide]: in test [1], the “Selectivity Index (SI) (AChE)” value was determined as 3. Besides, the results for the IC50 in test [1] and in test [4] were 630 ± 0.22 nM and 1800 ± 121 nM, respectively.

On to `O=C(/C=C/c1ccccc1)/C=C/c1cc[n+](Cc2ccc([N+](=O)[O-])cc2)cc1` [Compound 7e, 1–(4-Nitrobenzyl)-4-(1E,4E)-3-oxo-5-phenylpenta-1,4-dien-1-yl)pyridin-1-ium bromide], for which, in test [1], the “Selectivity Index (SI) (AChE)” value was 5 and the IC50 came out at 800 ± 0.12 nM. Also, in test [4], the IC50 turned out to be 3900 ± 52 nM.

With `O=C(/C=C/c1ccccc1)/C=C/c1ccc[n+](Cc2ccc(Br)cc2)c1` [Compound 8c, 1–(4-Bromobenzyl)-3-(1E,4E)-3-oxo-5-phenylpenta-1,4-dien-1-yl)pyridin-1-ium bromide], in test [1], the “Selectivity Index (SI) (AChE)” value is on record as 1 and the IC50 amounted to 1160 ± 0.17 nM.

Take `Cc1c(C)c2c(c(C)c1O)CCC(C)(C(=O)O)O2` (centres unmarked) [Trolox, reference compound]: the “ABTS Inhibition %” value came out at 9.3 ± 1.2% in test [3] (0.0312 mg/mL); 24.7 ± 1.2% in test [3] (0.0625 mg/mL); 51.0 ± 2.3% in test [3] (0.125 mg/mL); 91.5 ± 1.8% in test [3] (0.25 mg/mL); 93.9 ± 0.1% in test [3] (0.5 mg/mL).

Regarding `COc1cc(/C=C/C(=O)/C=C/c2cc[n+](Cc3ccc(Br)cc3)cc2)ccc1O` [Compound 7h, 1–(4-Bromobenzyl)-4-(1E,4E)-5–(4-hydroxy-3-methoxyphenyl)-3-oxopenta-1,4-dien-1-yl)pyridin-1-ium bromide], in test [1], the “Selectivity Index (SI) (AChE)” value is reported as 10. Besides, the half-maximal inhibitory concentration (IC50) in test [1] turned out to be 710 ± 0.16 nM; in test [4], 6360 ± 106 nM.

Turning to `O=C(/C=C/c1ccccc1)/C=C/c1ccc[n+](Cc2ccc([N+](=O)[O-])cc2)c1` [Compound 8e, 1–(4-Nitrobenzyl)-3-(1E,4E)-3-oxo-5-phenylpenta-1,4-dien-1-yl)pyridin-1-ium bromide], the “Selectivity Index (SI) (AChE)” value in test [1] worked out at 2. For the same molecule, in test [4], the concentration for half-maximal inhibition (IC50) came out at 2700 ± 63 nM.

Turning to `COc1cc(/C=C/C(=O)/C=C/c2ccc[n+](Cc3ccc([N+](=O)[O-])cc3)c2)ccc1O` [Compound 8j, 3-(1E,4E)-5–(4-Hydroxy-3-methoxyphenyl)-3-oxopenta-1,4-dien-1-yl)-1–(4-nitrobenzyl)pyridin-1-ium bromide], the IC50 in test [1] amounted to 660 ± 0.21 nM; in test [4], 9800 ± 90 nM.

For the molecule `COc1cc(/C=C/C(=O)/C=C/c2cc[n+](Cc3ccc([N+](=O)[O-])cc3)cc2)ccc1O` [Compound 7j, 4-(1E,4E)-5–(4-Hydroxy-3-methoxyphenyl)-3-oxopenta-1,4-dien-1-yl)-1–(4-nitrobenzyl)pyridin-1-ium bromide], the half-maximal inhibitory concentration (IC50) in test [1] was 230 ± 0.19 nM; in test [4], 1400 ± 83 nM.

Turning to `COc1cc(/C=C/C(=O)/C=C/c2cc[n+](Cc3ccc(C)cc3)cc2)ccc1O` [Compound 7i, 4-(1E,4E)-5–(4-Hydroxy-3-methoxyphenyl)-3-oxopenta-1,4-dien-1-yl)-1–(4-methylbenzyl)pyridin-1-ium bromide], in test [1], the “Selectivity Index (SI) (AChE)” value came to 3 and the IC50 stood at 220 ± 0.17 nM.

Turning to `Cc1ccc(C[n+]2ccc(/C=C/C(=O)/C=C/c3ccccc3)cc2)cc1` [Compound 7d, 1–(4-Methylbenzyl)-4-(1E,4E)-3-oxo-5-phenylpenta-1,4-dien-1-yl)pyridin-1-ium bromide], the “Selectivity Index (SI) (AChE)” value in test [1] worked out at 4. In addition, the values for the IC50 in test [1] and in test [4] were 1120 ± 0.14 nM and 4500 ± 73 nM, respectively.
